How the values were obtained:
human spermatozoa [1] = experiment: acrosome-reacted (PNA+) sperm after agonist cocktail, percent change vs DMSO (capacitating); higher = more of the measured sperm population than DMSO, for viability, fewer PI-positive (dead) cells than DMSO; conditions: incubation time: 3h, capacitating + agonist cocktail 1h
human spermatozoa [2] = experiment: hyperactivated motile sperm, percent change vs DMSO (capacitating); higher = more of the measured sperm population than DMSO, for viability, fewer PI-positive (dead) cells than DMSO; conditions: incubation time: 30min incubation
human spermatozoa [3] = experiment: progressively motile sperm, percent change vs DMSO (non-capacitating); higher = more of the measured sperm population than DMSO, for viability, fewer PI-positive (dead) cells than DMSO; extreme values may be limits of the assay
human spermatozoa [4] = experiment: viability fold change, 1 - (PI-positive fraction / DMSO median); higher = more of the measured sperm population than DMSO, for viability, fewer PI-positive (dead) cells than DMSO; conditions: incubation time: 3h, non-capacitating
human spermatozoa [5] = experiment: change in acrosome-reacted (PNA+) sperm vs DMSO, no agonist (capacitating); higher = more of the measured sperm population than DMSO, for viability, fewer PI-positive (dead) cells than DMSO; conditions: incubation time: 3h
HepG2 = HepG2 toxicity (resazurin), effect normalised to DMSO (DMSO = 0); higher = more features changed / larger toxic effect; conditions: incubation time: 70h incubation
human spermatozoa [6] = experiment: progressively motile sperm, percent change vs DMSO (capacitating); higher = more of the measured sperm population than DMSO, for viability, fewer PI-positive (dead) cells than DMSO; conditions: incubation time: 30min incubation
HeLa [7] = experiment: HeLa toxicity: nuclei-count effect normalised to DMSO (DMSO = 0); higher = more features changed / larger toxic effect; conditions: incubation time: 24h incubation
human spermatozoa [8] = experiment: total motile sperm, percent change vs DMSO (non-capacitating); higher = more of the measured sperm population than DMSO, for viability, fewer PI-positive (dead) cells than DMSO
HeLa [9] = experiment: Cell Painting percent induction (share of features beyond 2 z-scores vs DMSO); higher = more features changed / larger toxic effect; extreme values may be limits of the assay; conditions: incubation time: 24h incubation
[10] = incubation time: 10min incubation, 9.99 µM
[11] = incubation time: 10min incubation, 29.9 µM
[12] = incubation time: 3h incubation, 9.99 µM
[13] = incubation time: 3h incubation, 29.9 µM
[14] = incubation time: 6h incubation, 9.99 µM
[15] = incubation time: 6h incubation, 29.9 µM
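Throughout, for progressively motile sperm, percent change vs DMSO (non-capacitating): pooled live human sperm from at least 3 donors, tracked by automated microscopy in 0.5 s time-lapse movies, compounds at 10 and 30 µM, versus median of 16 DMSO wells per plate.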
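Throughout, for total motile sperm, percent change vs DMSO (non-capacitating): sperm pooled from at least 3 donors, tracked in 0.5 s time-lapse movies by automated microscopy after 10 min, 3 h or 6 h with compound at 10 or 30 µM.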

Row | SMILES | acrosome-reacted (human spermatozoa [1]; 9.99 µM) | acrosome-reacted (human spermatozoa [1]; 29.9 µM) | hyperactivated motile sperm (human spermatozoa [2]; 9.99 µM) | hyperactivated motile sperm (human spermatozoa [2]; 29.9 µM) | progressively motile sperm (human spermatozoa [3]; [10]) | progressively motile sperm (human spermatozoa [3]; [11]) | progressively motile sperm (human spermatozoa [3]; [12]) | progressively motile sperm (human spermatozoa [3]; [13]) | progressively motile sperm (human spermatozoa [3]; [14]) | progressively motile sperm (human spermatozoa [3]; [15]) | viability fold change (human spermatozoa [4]; 9.99 µM) | viability fold change (human spermatozoa [4]; 29.9 µM) | change in acrosome-reacted (human spermatozoa [5]; 9.99 µM) | change in acrosome-reacted (human spermatozoa [5]; 29.9 µM) | HepG2 toxicity (HepG2; 10 µM) | HepG2 toxicity (HepG2; 30 µM) | progressively motile sperm (human spermatozoa [6]; 9.99 µM) | progressively motile sperm (human spermatozoa [6]; 29.9 µM) | HeLa toxicity: nuclei-count effect normalised (HeLa [7]; 9.99 µM) | HeLa toxicity: nuclei-count effect normalised (HeLa [7]; 29.9 µM) | total motile sperm (human spermatozoa [8]; [10]) | total motile sperm (human spermatozoa [8]; [11]) | total motile sperm (human spermatozoa [8]; [12]) | total motile sperm (human spermatozoa [8]; [13]) | total motile sperm (human spermatozoa [8]; [14]) | total motile sperm (human spermatozoa [8]; [15]) | Cell Painting percent induction (HeLa [9]; 9.99 µM) | Cell Painting percent induction (HeLa [9]; 29.9 µM)
1 | NC(=O)c1cc(-c2ccc(S(=O)(=O)[C@H]3CC[C@H](Nc4ccc(C(F)(F)F)cn4)CC3)cc2)ccn1 [CCR6 inhibitor 1] | 47.9% | 31% | 0.384% | -27% | 20.1% | 23% | 25.5% | 9.27% | 37.7% | -18.5% | -1.3 | -0.257 | 0.47% | 1.33% | 93.6% | 97.6% | 4.84% | -2.5% | 38.5% | 82.3% | -1.18% | -0.388% | -10.1% | -17.5% | -12.7% | -30% | 0.144% | 1.51%
2 | O=C(O)c1ccc(/C=C2/SC(=S)N(c3cccc(C(F)(F)F)c3)C2=O)cc1 [CTFRinh-172] | 2.51% | 5.75% | -0.45% | -19.9% | 3.85% | -3.67% | 4.25% | 3.7% | -2.41% | 3.06% | -0.401 | -0.284 | 0.257% | -0.529% | 10.5% | -1.68% | -6.92% | -8.59% | 0.134% | 4.28% | -0.0195% | 0.898% | 0.0108% | -0.0432% | -7.63% | -1.41% | 1.51% | 2.67%
3 | CCOc1ccc(-c2nc(-c3cccc4c3CCC4NCCO)no2)cc1OCC (centres undefined) [CYM 5442 hydrchloride] | 63% | 75.1% | 46.2% | 45.7% | 15.6% | 3.34% | 40% | 14.5% | 51.9% | 21.7% | -0.289 | -0.544 | 2.58% | 4.61% | 14.4% | 101% | 3.76% | 6.19% | -0.601% | 18% | 0.362% | -6.08% | 7.62% | -11.7% | 7.81% | -12.3% | 4.97% | 3.13%

Reference: the supplement of paper PMC10878532, “Sperm Toolbox—A selection of small molecules to study human spermatozoa” (PLOS ONE, 2024)
